# Several values for one entry are separate records, joined by “and”; a condition that tells them apart may be missing. Identical values can stand only once. Like-named read-outs stand apart in the source and are kept apart here.
# Columns and labels:
# DDR1 = biological target: T1, DDR1 (Homo sapiens, UniProt Q08345); experiment: Kinase panel profiling at 1 µmol/L (mobility shift assay, Carna); assay type: biochemical; settings: 1 µmol/L of BTK inhibitor
# T1 construct: purchased Carna Biosciences
# EPHA5 = biological target: T2, EPHA5 (Homo sapiens, UniProt P54756); experiment: as above; assay type: biochemical; settings: 1 µmol/L of BTK inhibitor
# T2 construct: purchased Carna Biosciences
# HCK = biological target: T3, HCK (Homo sapiens, UniProt P08631); experiment: as above; assay type: biochemical; settings: 1 µmol/L of BTK inhibitor
# T3 construct: purchased Carna Biosciences
# SRC = biological target: T4, SRC (Homo sapiens, UniProt P12931); experiment: as above; assay type: biochemical; settings: 1 µmol/L of BTK inhibitor
# T4 construct: purchased Carna Biosciences
# SRM = biological target: T5, SRM (Homo sapiens, UniProt Q9H3Y6); experiment: as above; assay type: biochemical; settings: 1 µmol/L of BTK inhibitor
# T5 construct: purchased Carna Biosciences
# CDK9/CycT1 = biological target: T6, CDK9/CycT1 (Homo sapiens, UniProt P50750); experiment: as above; assay type: biochemical; settings: 1 µmol/L of BTK inhibitor
# T6 construct: purchased Carna Biosciences
# CK1γ1 = biological target: T7, CK1γ1 (Homo sapiens, UniProt Q9HCP0); experiment: as above; assay type: biochemical; settings: 1 µmol/L of BTK inhibitor
# T7 construct: purchased Carna Biosciences
# JNK3 = biological target: T8, JNK3 (Homo sapiens, UniProt P53779); experiment: as above; assay type: biochemical; settings: 1 µmol/L of BTK inhibitor
# T8 construct: purchased Carna Biosciences
# NDR1 = biological target: T9, NDR1 (Homo sapiens, UniProt Q15208); experiment: as above; assay type: biochemical; settings: 1 µmol/L of BTK inhibitor
# T9 construct: purchased Carna Biosciences
# PAK6 = biological target: T10, PAK6 (Homo sapiens, UniProt Q9NQU5); experiment: as above; assay type: biochemical; settings: 1 µmol/L of BTK inhibitor
# T10 construct: purchased Carna Biosciences
# PKCη = biological target: T11, PKCη (Homo sapiens, UniProt P24723); experiment: as above; assay type: biochemical; settings: 1 µmol/L of BTK inhibitor
# T11 construct: purchased Carna Biosciences
# YES = YES (Homo sapiens, UniProt P07947); experiment: Kinase enzyme activity assay (mobility shift assay, Carna); settings: 1 µmol/L of BTK inhibitor
# AN3-CA = experiment: Cell viability assay (ATPlite); assay type: cell-based, human; settings: AN3-CA cell line, 72 hours incubation
# Procedure: (§1) Intracellular ATP content was used as an indirect readout of cell number using the ATPlite 1Step bioluminescence assay (Revvity, Groningen, the Netherlands). Cells were seeded in 384-well plates at an optimized density to ensure unrestricted growth and maximal signal at the end of the experiment. After 24 hours of incubation, the starting cell number was determined by adding ATPlite to each well of a control plate and recording luminescence on an Envision multimode reader (Revvity, Waltham, MA, USA) ([4]). Compounds were diluted in DMSO in √10-fold steps from 10 mmol/L stocks to obtain 9-point dilution series. After further 31.6-fold dilution in 20 mmol/L HEPES (pH 7.4), the dilution series were added in duplicate to the cells in the 384-well plates to determine the effect of the compounds on cell viability. Vehicle-treated controls were included to determine maximal cell proliferation. The final DMSO concentration was 0.4% (v/v) in all wells. After incubation for an additional 72 hours, the ATP content was measured in each well using ATPlite. The luminescent signal in inhibitor-treated wells was normalized to vehicle-treated control wells to determine the percentage viability at each concentration. Cell doublings were determined by relating the cell number of vehicle-treated controls to the starting cell number for each cell line. The viability assay of a cell line was repeated when the cell doubling deviated > 2-fold from the historic doubling as determined by multiple independent experiments. The quality of the complete assay was determined by a parallel test with doxorubicin on two cell lines. IC50 values were calculated by fitting a four-parameter logistic model to the percentage viability values using IDBS XLfit5 (IDBS, Guildford, United Kingdom). All curves were visually inspected and submitted to an F-test as implemented in IDBS XLfit5. Curves with an F-value above 1.5 were invalidated and IC50 values were maximized at the highest concentration.
# KATO III = experiment: Cell viability assay (ATPlite); assay type: cell-based, human; settings: KATO III cell line, 72 hours incubation
# Procedure: as §1
# KG-1 = experiment: Cell viability assay (ATPlite); assay type: cell-based, human; settings: KG-1 cell line, 72 hours incubation
# Procedure: as §1
# RT-4 = experiment: Cell viability assay (ATPlite); assay type: cell-based, human; settings: RT-4 cell line, 72 hours incubation
# Procedure: as §1
# MEK1 [1] = biological target: T12, MEK1 (Homo sapiens, UniProt Q02750); experiment: Kinase enzyme activity assay (ELISA, in-house); assay type: biochemical
# T12 construct: purchased Carna Biosciences, Inc. 07–41
# MEK2 = biological target: T13, MEK2 (Homo sapiens, UniProt P36507); experiment: Kinase enzyme activity assay (ELISA, in-house); assay type: biochemical
# T13 construct: purchased Carna Biosciences, Inc. 07-42
# BMX = biological target: T14, BMX (Homo sapiens, UniProt P51813); experiment: Kinase panel profiling at 1 µmol/L (mobility shift assay, Carna); assay type: biochemical; settings: 1 µmol/L of BTK inhibitor
# T14 construct: purchased Carna Biosciences
# MEK1 [2] = biological target: T12, MEK1; design: method as in Reiff et al. [15]; settings: 1 mmol/L ATP; ref Reiff et al. [15]; read-out: IC50 in an enzyme assay for MEK1; cited from earlier work
# [3] = biological target: biotinylated, inactive MEK1 (Homo sapiens, UniProt Q02750); experiment: Surface plasmon resonance binding (Biacore 1S+); settings: SPR
# B-RAF [V600E] = B-RAF [V600E] (Homo sapiens, UniProt P15056, V600E); experiment: Kinase enzyme activity assay at 1 mmol/L ATP (Carna)
# Procedure: (§2) Inhibition of MLK1 and B-RAF at K M,ATP was determined in a radiometric assay using ^32P-labeled ATP at Eurofins Cerep SA (Celle-Lévescault, France).
# SIK3 = SIK3 (Homo sapiens, UniProt Q9Y2K2); experiment: as above
# Procedure: as §2
# MLK1 = MLK1 (Homo sapiens, UniProt P80192); experiment: Radiometric kinase assay with 32P-labeled ATP (Eurofins)
# Procedure: Inhibition of MLK1 and B-RAF at K M,ATP was determined in a radiometric assay using ^32P-labeled ATP at Eurofins Cerep SA (Celle-Lévescault, France). Interaction with SIK3 was assessed in a competition binding assay at Eurofins DiscoverX LLC (San Diego, CA, USA).
# B-RAF = B-RAF (Homo sapiens, UniProt P15056); experiment: Radiometric kinase assay with 32P-labeled ATP (Eurofins), cascade assay
# Procedure: as §2
# T3 sequence (P08631 whole entry): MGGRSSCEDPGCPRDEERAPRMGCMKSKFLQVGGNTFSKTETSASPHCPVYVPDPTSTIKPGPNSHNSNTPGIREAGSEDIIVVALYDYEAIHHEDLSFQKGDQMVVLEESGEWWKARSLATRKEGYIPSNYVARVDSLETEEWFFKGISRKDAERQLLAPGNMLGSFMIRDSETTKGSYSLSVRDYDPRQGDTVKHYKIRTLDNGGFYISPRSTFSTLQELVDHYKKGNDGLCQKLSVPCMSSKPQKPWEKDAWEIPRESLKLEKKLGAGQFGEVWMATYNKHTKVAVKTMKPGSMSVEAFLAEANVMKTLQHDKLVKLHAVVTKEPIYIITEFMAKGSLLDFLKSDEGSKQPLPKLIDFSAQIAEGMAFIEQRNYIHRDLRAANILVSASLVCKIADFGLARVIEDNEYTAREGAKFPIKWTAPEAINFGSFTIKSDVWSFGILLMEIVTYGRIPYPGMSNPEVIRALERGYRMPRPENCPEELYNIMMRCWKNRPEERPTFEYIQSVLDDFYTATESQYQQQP
# T5 sequence (Q9H3Y6 whole entry): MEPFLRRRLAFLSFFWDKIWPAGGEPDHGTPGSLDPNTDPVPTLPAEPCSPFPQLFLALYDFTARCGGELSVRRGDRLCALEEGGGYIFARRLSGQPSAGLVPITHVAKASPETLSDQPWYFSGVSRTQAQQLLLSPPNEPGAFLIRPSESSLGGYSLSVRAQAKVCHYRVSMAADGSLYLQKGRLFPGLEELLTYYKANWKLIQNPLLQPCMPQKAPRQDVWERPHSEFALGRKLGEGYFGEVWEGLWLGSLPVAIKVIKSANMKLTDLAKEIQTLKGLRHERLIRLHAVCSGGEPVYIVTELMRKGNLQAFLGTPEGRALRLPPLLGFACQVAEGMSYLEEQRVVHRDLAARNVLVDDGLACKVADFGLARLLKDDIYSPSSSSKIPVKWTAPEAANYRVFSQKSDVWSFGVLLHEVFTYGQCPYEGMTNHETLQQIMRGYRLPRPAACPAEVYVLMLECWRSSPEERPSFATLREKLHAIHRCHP
# T8 sequence (P53779 whole entry): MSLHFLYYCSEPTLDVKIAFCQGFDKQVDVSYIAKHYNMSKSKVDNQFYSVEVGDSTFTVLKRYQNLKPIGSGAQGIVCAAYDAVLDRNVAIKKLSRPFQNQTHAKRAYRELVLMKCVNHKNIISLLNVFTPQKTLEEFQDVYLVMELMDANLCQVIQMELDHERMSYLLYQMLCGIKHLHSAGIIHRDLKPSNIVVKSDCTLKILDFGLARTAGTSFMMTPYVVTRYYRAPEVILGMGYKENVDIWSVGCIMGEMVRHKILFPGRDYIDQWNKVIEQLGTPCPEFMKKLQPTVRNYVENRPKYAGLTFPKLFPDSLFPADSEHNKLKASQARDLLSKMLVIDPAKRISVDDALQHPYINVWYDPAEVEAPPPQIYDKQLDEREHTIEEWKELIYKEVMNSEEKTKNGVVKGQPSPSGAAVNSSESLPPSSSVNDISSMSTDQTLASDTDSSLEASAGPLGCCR
# T10 sequence (Q9NQU5 whole entry): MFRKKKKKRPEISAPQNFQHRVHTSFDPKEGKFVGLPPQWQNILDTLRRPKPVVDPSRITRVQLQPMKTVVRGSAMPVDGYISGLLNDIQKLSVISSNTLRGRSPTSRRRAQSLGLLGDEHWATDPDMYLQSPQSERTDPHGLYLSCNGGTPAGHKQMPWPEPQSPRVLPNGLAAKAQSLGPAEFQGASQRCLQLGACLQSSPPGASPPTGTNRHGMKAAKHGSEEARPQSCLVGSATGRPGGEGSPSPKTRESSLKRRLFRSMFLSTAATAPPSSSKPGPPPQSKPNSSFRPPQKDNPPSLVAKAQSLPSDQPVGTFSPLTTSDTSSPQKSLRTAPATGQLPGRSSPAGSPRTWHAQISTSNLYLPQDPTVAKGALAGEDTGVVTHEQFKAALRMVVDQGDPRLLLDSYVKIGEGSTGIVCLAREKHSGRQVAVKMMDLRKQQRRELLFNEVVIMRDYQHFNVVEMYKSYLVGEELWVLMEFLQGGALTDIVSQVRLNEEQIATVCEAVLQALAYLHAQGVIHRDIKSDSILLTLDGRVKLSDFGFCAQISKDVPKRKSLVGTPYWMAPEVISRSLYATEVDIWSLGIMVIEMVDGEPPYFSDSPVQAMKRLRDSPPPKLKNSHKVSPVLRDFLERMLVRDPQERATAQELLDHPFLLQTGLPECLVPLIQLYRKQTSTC
# T1 sequence (Q08345 19-913): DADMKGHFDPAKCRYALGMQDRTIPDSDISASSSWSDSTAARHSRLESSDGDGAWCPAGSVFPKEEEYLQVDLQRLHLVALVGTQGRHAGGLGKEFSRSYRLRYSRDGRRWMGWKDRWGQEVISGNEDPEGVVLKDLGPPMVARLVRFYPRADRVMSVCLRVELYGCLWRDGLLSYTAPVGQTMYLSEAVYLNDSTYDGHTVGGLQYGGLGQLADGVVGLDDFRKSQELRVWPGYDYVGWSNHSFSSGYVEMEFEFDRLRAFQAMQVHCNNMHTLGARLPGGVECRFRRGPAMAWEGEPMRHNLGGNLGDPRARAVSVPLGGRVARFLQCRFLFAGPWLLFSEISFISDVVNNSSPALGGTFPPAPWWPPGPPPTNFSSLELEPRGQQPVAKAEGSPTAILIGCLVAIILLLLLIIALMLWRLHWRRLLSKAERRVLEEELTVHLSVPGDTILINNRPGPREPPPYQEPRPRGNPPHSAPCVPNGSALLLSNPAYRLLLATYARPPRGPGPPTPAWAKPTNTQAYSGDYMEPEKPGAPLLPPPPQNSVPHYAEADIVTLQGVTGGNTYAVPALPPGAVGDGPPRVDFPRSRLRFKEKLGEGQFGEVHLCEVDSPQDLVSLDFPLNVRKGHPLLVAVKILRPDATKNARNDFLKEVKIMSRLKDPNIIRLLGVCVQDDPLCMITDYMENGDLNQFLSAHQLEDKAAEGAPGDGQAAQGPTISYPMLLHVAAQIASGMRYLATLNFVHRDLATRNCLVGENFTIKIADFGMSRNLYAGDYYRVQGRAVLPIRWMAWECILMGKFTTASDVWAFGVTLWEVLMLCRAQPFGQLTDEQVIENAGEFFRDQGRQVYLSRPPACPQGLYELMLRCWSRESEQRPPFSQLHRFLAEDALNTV
# T12 sequence (Q02750 whole entry): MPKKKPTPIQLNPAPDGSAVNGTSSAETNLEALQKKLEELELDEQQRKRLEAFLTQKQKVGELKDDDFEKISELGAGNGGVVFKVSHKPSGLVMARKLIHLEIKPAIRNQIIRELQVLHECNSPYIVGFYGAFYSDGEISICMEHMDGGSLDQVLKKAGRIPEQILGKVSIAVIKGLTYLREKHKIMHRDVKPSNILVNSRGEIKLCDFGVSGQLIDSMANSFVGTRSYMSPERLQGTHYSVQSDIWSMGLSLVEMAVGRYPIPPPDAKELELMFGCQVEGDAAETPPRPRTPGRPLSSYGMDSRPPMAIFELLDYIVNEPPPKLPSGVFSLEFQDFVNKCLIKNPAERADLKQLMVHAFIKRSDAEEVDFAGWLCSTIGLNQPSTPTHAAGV
# Chain of biotinylated, inactive MEK1 (Q02750 whole entry): as above
# T9 sequence (Q15208 whole entry): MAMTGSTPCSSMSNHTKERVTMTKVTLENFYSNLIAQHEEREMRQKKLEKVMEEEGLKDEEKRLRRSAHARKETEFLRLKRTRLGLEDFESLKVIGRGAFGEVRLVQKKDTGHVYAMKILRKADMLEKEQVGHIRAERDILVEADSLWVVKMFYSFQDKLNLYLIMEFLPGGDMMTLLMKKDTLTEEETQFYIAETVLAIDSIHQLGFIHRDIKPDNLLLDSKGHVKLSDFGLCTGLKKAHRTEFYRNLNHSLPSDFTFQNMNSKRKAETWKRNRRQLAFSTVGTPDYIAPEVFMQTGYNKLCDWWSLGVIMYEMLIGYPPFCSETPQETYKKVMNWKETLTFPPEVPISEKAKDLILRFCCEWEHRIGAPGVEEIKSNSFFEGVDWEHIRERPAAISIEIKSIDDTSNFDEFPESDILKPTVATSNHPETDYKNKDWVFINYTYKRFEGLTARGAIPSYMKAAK
# T11 sequence (P24723 whole entry): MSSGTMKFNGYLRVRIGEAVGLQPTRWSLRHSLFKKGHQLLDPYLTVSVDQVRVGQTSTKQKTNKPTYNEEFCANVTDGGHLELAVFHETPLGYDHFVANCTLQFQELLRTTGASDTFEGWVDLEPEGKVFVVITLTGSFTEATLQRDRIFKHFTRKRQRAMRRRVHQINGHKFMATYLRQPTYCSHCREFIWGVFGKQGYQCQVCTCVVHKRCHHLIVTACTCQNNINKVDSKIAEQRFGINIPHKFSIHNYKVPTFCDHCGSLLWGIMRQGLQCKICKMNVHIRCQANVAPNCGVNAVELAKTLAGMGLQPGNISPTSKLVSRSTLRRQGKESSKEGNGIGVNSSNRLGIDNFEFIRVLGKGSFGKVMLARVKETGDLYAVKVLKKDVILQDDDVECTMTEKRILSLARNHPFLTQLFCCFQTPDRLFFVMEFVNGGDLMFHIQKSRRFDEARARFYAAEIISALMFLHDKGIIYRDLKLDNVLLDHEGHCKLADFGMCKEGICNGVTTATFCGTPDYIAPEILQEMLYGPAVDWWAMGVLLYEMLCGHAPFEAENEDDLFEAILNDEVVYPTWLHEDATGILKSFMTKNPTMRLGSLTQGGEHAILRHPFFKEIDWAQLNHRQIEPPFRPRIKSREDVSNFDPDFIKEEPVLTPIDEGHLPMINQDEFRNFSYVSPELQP
compound,measurement,setting,value
CC#CC(=O)N1CCC[C@H]1c1nc(-c2ccc(C(=O)Nc3ccccn3)cc2)c2c(N)nccn12 [acalabrutinib],Percentage inhibition of kinase enzyme activity,DDR1,7.80%
same,Percentage inhibition of kinase enzyme activity,EPHA5,-1.17%
same,Percentage inhibition of kinase enzyme activity,HCK,0.45%
same,Percentage inhibition of kinase enzyme activity,SRC,10.46%
same,Percentage inhibition of kinase enzyme activity,SRM,39.49%
same,Percentage inhibition of kinase enzyme activity,CDK9/CycT1,15.27%
same,Percentage inhibition of kinase enzyme activity,CK1γ1,0.33%
same,Percentage inhibition of kinase enzyme activity,JNK3,-0.89%
same,Percentage inhibition of kinase enzyme activity,NDR1,-6.32%
same,Percentage inhibition of kinase enzyme activity,PAK6,-8.74%
same,Percentage inhibition of kinase enzyme activity,PKCη,-3.18%
same,Percentage inhibition of kinase enzyme activity,YES,21.84%
C=CC(=O)N1CCC([C@@H]2CCNc3c(C(N)=O)c(-c4ccc(Oc5ccccc5)cc4)nn32)CC1 [zanubrutinib],Percentage inhibition of kinase enzyme activity,EPHA5,13.96%
same,Percentage inhibition of kinase enzyme activity,SRM,57.79%
O=C(c1ccc(Oc2ccccc2)cc1Cl)c1c[nH]c2ncnc(N[C@@H]3CC[C@@H](CO)OC3)c12 [nemtabrutinib],IC50,AN3-CA,1190 nM
same,IC50,"AN3-CA; Homo sapiens, AN3-CA, 72 h",1100 nM
same,IC50,"KATO III; Homo sapiens, KATO III, 72 h",1100 nM
same,IC50,KATO III,1120 nM
same,IC50,"KG-1; Homo sapiens, KG-1, 72 h",1400 nM
same,IC50,KG-1,1410 nM
same,IC50,"RT-4; Homo sapiens, RT-4, 72 h",1700 nM
same,IC50,RT-4,1700 nM
same,IC50,"MEK1 [1]; 1 mmol/L ATP, read-out: IC50, MEK1",456 nM
same,IC50,"MEK1 [1]; IC50, MEK1",~9 nM
same,IC50,"MEK1 [1]; K M,bin ATP (10 µmol/L ATP), read-out: IC50, MEK1",8.5 nM and 8.46 nM
same,IC50,"MEK2; 1 mmol/L ATP, read-out: IC50, MEK2",494 nM
same,IC50,"MEK2; IC50, MEK2",9.5 nM
same,Percentage inhibition of kinase enzyme activity,BMX,100.05%
same,Percentage inhibition of kinase enzyme activity,DDR1,93.81%
same,Percentage inhibition of kinase enzyme activity,EPHA5,100.38%
same,Percentage inhibition of kinase enzyme activity,HCK,96.80%
same,Percentage inhibition of kinase enzyme activity,SRM,102.16%
same,Percentage inhibition of kinase enzyme activity,CDK9/CycT1,-0.08%
same,Percentage inhibition of kinase enzyme activity,CK1γ1,0.57%
same,Percentage inhibition of kinase enzyme activity,JNK3,-2.93%
same,Percentage inhibition of kinase enzyme activity,NDR1,3.34%
same,Percentage inhibition of kinase enzyme activity,PAK6,64.72%
same,Percentage inhibition of kinase enzyme activity,PKCη,5.25%
same,IC50,MEK1 [2],599 nM
same,log (kd),[3],-3.49
same,log(ka),[3],4.50
same,t1/2,[3],2140 s
same,IC50,B-RAF [V600E],220 nM
same,IC50,SIK3,9.32 µM
same,IC50,MLK1,4.87 µM
same,Inhibition of MLK1,MLK1,did not inhibit
same,IC50,B-RAF,73 nM
COc1ccc(F)cc1C(=O)NCc1ccc(-c2nn([C@@H](C)C(F)(F)F)c(N)c2C(N)=O)cc1 [pirtobrutinib],Percentage inhibition of kinase enzyme activity,BMX,29.35%
same,Percentage inhibition of kinase enzyme activity,DDR1,2.52%
same,Percentage inhibition of kinase enzyme activity,EPHA5,0.45%
same,Percentage inhibition of kinase enzyme activity,HCK,24.69%
same,Percentage inhibition of kinase enzyme activity,SRC,4.75%
same,Percentage inhibition of kinase enzyme activity,SRM,18.61%
same,Percentage inhibition of kinase enzyme activity,CDK9/CycT1,-6.41%
same,Percentage inhibition of kinase enzyme activity,CK1γ1,5.92%
same,Percentage inhibition of kinase enzyme activity,JNK3,0.49%
same,Percentage inhibition of kinase enzyme activity,NDR1,1.20%
same,Percentage inhibition of kinase enzyme activity,PAK6,4.12%
same,Percentage inhibition of kinase enzyme activity,PKCη,3.32%
same,Percentage inhibition of kinase enzyme activity,YES,72.60%
C=CC(=O)N1CCC[C@@H](n2nc(-c3ccc(Oc4ccccc4)cc3)c3c(N)ncnc32)C1 [ibrutinib],Percentage inhibition of kinase enzyme activity,DDR1,37.17%
same,Percentage inhibition of kinase enzyme activity,EPHA5,25.73%
same,Percentage inhibition of kinase enzyme activity,HCK,99.66%
same,Percentage inhibition of kinase enzyme activity,SRM,102.20%
same,Percentage inhibition of kinase enzyme activity,CK1γ1,3.68%
same,Percentage inhibition of kinase enzyme activity,JNK3,0.98%
same,Percentage inhibition of kinase enzyme activity,NDR1,2.65%
same,Percentage inhibition of kinase enzyme activity,PAK6,8.60%
same,Percentage inhibition of kinase enzyme activity,PKCη,3.27%

# — publication PMC12586182 (Frontiers in Oncology, 2025)
